# Results reported in article PMC3448946 (Biochemistry, 2011).
# Like-named read-outs stand apart in the source and are kept apart here.
# Columns and labels:
# [1] = target: T1, MSOX (monomeric sarcosine oxidase) (Bacillus sp., UniProt P40859); assay: Spectral titration of MSOX; assay type: binding; conditions: for Kd: 50 mM potassium phosphate buffer
# T1 sequence (P40859 1-390): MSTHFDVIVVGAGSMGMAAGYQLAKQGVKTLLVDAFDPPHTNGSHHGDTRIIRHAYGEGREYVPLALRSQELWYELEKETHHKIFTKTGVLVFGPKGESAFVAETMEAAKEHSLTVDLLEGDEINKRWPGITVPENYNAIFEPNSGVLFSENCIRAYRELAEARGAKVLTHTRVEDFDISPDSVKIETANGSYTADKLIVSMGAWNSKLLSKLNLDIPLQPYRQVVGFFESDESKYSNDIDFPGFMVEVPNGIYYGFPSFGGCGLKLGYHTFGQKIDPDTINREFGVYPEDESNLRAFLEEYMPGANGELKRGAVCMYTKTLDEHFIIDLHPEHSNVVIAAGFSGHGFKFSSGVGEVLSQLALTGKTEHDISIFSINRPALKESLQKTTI
# [2] = target: T2, reduced MSOX (Bacillus sp., UniProt P40859)
# [3] = target: T2, reduced MSOX; conditions: absence of chloride; cited from earlier work
# [4] = target: T2, reduced MSOX; assay: biochemical
# [5] = target: Lys265Met MSOX mutant (Bacillus sp., UniProt P40859, K266M); conditions: absorption spectrum of mutant unaffected by 2.0 M potassium chloride
# [6] = target: GOX (glucose oxidase) (Aspergillus niger, UniProt P13006); assay: biochemical
# Sequence of GOX (glucose oxidase) (P13006 23-605 limits assumed): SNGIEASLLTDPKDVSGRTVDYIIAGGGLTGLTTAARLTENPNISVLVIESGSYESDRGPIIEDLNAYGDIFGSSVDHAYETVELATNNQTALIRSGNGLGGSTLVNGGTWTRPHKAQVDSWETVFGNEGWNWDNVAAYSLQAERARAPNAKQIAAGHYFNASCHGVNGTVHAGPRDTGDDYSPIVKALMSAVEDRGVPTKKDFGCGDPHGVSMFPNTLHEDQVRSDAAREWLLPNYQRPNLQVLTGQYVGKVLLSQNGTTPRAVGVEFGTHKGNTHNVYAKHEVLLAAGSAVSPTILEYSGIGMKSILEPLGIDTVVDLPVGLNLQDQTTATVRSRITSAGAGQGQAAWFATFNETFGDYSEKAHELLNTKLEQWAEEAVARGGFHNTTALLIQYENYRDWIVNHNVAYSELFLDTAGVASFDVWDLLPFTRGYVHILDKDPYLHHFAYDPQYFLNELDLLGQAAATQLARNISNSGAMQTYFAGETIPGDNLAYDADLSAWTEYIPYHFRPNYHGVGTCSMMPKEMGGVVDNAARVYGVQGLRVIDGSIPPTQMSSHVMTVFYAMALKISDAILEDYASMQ
smiles,measurement,setting,value
"O=S(=O)([O-])[O-].[Na+].[Na+] [sulfate, sodium sulfate]",Binding of sulfate to MSOX,[1]; 667 mM sodium sulfate control for ionic strength,does not bind
O=O [oxygen],Second-order rate constant for reaction of reduced MSOX with oxygen,"[2]; 50 mM potassium phosphate, pH 8.0, 2.0 M potassium chloride, 25 °C, monitored at 454 nm",2.48 ± 0.03 × 10^5 M^−1 s^−1
same,Second-order rate constant for reaction of reduced MSOX with oxygen,[3],2.83 ± 0.07 × 10^5 M^−1 s^−1
same,Kd,[4],≥ 10 mM
"CSCC(=O)O [MTA, methylthioacetate]",Kd,"[1]; MSOX + MTA ⇄ MSOX•MTA, no additions, pH 8.0, 25 °C",2.43 ± 0.02 mM
same,Kd,"[1]; MSOX + MTA ⇄ MSOX•MTA, plus 667 mM sodium sulfate, pH 8.0, 25 °C, plus 667 mM sodium sulfate",1.84 ± 0.01 mM
same,Kd,"[1]; MSOX•Cl− + MTA ⇄ MSOX•Cl−•MTA, pH 8.0, containing 2.0 M potassium chloride, 25 °C, absorbance at 528 nm",4.9 ± 0.07 mM
Cl [chloride],Chloride binding to Lys265Met MSOX,[5],eliminates chloride binding
same,Chloride binding at oxygen activation site of reduced MSOX in solution,[2],not bound
same,Kd,[6],6.2 ± 0.1 mM
